# “Also recorded” adds a separate entry of the source. Like-named read-outs stand apart in the source and are kept apart here.
# Experiments:
# [1] = biological target: T1, Eis_Mtb (Mycobacterium tuberculosis, UniProt P9WFK7); format: biochemical
# [2] = biological target: T1, Eis_Mtb; assay: biochemical; format: biochemical
# [3] = test system: Mtb H37Rv; format: cell-based
# [4] = biological target: AAC(6′)-Ie/APH(2″)-Ia (Staphylococcus aureus, UniProt P0A0C1); assay: Selectivity: KAN acetylation by AAC(6′)-Ie/APH(2″)-Ia; format: biochemical
# [5] = test system: AAC(3)-IV; assay: Selectivity: KAN acetylation by AAC(3)-IV; format: biochemical, E. coli; conditions: for inhibition of KAN acetylation by AAC(3)-IV (in words): concentrations as high as 200 μM
# [6] = biological target: AAC(2′)-Ic (Mycobacterium tuberculosis, UniProt P9WQG9); assay: biochemical; design: species or system Mtb
# [7] = test system: A549, HEK-293, and J774A.1 cells; conditions: KAN alone at sub-IC50 concentrations (FIG. 9)
# [8] = activity of KAN against Mtb H37Rv with compound at concentration tested (100x IC50 or 100 μM), Example 1, two experiments
# [9] = KAN MIC for H37Rv Mtb in the presence of compound at the specified concentration, Example 4
# [10] = concentrations as high as 200 μM
# T1 sequence (P9WFK7 2-402 limits assumed): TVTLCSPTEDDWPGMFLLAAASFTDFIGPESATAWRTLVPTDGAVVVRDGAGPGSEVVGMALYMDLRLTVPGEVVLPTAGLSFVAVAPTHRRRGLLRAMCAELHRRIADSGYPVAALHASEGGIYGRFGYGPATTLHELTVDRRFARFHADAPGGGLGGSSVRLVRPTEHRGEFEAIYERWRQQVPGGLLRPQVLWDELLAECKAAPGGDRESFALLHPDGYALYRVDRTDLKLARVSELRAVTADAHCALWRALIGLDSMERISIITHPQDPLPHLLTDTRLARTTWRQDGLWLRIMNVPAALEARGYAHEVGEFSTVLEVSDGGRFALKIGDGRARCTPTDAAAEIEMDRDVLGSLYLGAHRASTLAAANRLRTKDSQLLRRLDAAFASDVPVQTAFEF
# Chain of AAC(2′)-Ic (P9WQG9 whole entry): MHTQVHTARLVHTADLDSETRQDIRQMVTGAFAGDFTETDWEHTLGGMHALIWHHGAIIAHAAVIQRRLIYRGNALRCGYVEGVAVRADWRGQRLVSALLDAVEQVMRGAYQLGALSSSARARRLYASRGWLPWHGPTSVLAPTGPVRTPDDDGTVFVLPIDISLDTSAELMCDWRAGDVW
# Chain of AAC(6′)-Ie/APH(2″)-Ia (P0A0C1 whole entry): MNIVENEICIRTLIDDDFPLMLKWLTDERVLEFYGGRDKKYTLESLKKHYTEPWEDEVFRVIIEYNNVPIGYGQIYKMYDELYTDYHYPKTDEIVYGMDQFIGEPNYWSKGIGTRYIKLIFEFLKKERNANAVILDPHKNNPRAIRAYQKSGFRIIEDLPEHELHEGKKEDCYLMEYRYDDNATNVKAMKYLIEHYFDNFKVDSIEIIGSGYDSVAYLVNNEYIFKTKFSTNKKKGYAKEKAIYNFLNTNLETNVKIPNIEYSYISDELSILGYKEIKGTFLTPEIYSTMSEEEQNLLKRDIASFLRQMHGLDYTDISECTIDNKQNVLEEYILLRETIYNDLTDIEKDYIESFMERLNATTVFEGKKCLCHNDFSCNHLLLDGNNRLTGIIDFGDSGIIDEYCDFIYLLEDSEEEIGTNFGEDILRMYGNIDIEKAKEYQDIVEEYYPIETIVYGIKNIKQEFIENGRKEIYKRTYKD
structure (smiles),measurement,setting,value
Cc1cc(NS(=O)(=O)c2ccc3[nH]c(=O)c(=O)[nH]c3c2)ccc1Br [Compound 1],Eis inhibition in the HTS (in words),[1],modest Eis inhibition; also recorded: did not display significant Eis inhibition
CCC(=O)Cn1c(C(=O)OC)cc2occc21 [Compound 1l],IC50,[2],> 200000 nM
COC(=O)c1cc2occc2n1CC(=O)C(C)(C)C [Compound 1m],H37Rv MICKAN,[3]; [8],≤1.25 µg/mL
same,IC50,[2]; read-out: IC50,> 200000 nM
CCC(=O)CN1C(=O)C2(OCCO2)c2ccccc21 [Compound 2l],H37Rv MICKAN,[3]; [8],≤1.25 µg/mL
same,IC50,[2]; read-out: IC50,> 200000 nM
O=C(CN1C(=O)C2(OCCO2)c2ccccc21)c1cccc([N+](=O)[O-])c1 [Compound 2n],IC50,[2]; read-out: IC50,1200 ± 400 nM
O=c1[nH]c2ccc(S(=O)(=O)Nc3ccc(Cl)c(C(F)(F)F)c3)cc2[nH]c1=O [Compound 3],Eis inhibition in the HTS (in words),[1],modest Eis inhibition
O=C(C[N+]1=C(c2ccc(F)c(F)c2)c2cccn2CC1)c1cccc(Cl)c1 [Compound 3d],IC50,[2]; read-out: IC50,43 ± 6 nM
O=C(C[N+]1=C(c2ccc(F)c(F)c2)c2cccn2CC1)c1ccc(F)cc1 [Compound 3h],IC50,[2]; read-out: IC50,110 ± 30 nM
CCN(CC)CCCNC1=NS(=O)(=O)C(c2ccc(C)c(C)c2)=C1C [Compound 3i],H37Rv MICKAN,[3]; [9],0.625 µg/mL
Cc1ccc(C(=O)C[N+]2=C(c3ccc(F)c(F)c3)c3cccn3CC2)cc1 [Compound 3k],IC50,[2]; read-out: IC50,110 ± 30 nM
CC1=C(c2ccc(F)cc2)S(=O)(=O)N=C1NCCCN1CCCCC1 [Compound 6b],H37Rv MICKAN,[3]; [9],0.625 µg/mL
CC1=C(c2ccc(F)cc2)S(=O)(=O)N=C1NCCCN1CCCCC1C (centres unmarked) [Compound 7b],H37Rv MICKAN,[3]; [9],0.625 µg/mL
CN1C(=O)C2(OCCO2)c2ccccc21 [Compound 8b],Eis inhibition in the HTS (in words),[1],no Eis_Mtb inhibitory activity
CC1=C(c2ccc(Cl)cc2)S(=O)(=O)N=C1NCCCN1CCc2ccccc2C1 [Compound 11c],H37Rv MICKAN,[3]; [9],0.625 µg/mL
CC1=C(c2ccccc2)S(=O)(=O)N=C1NCCCN1CCOCC1 [Compound 13a],H37Rv MICKAN,[3]; [9],0.625 µg/mL
CC1=C(c2ccc(C)cc2)S(=O)(=O)N=C1NCCCN1CCOCC1 [Compound 13e],H37Rv MICKAN,[3]; [9],0.625 µg/mL
CC1=C(c2cccc(Cl)c2)S(=O)(=O)N=C1NCCCN1CCOCC1 [Compound 13g],H37Rv MICKAN,[3]; [9],0.625 µg/mL
CC1=C(c2ccc(C)c(C)c2)S(=O)(=O)N=C1NCCCN1CCOCC1 [Compound 13i],H37Rv MICKAN,[3]; [9],0.625 µg/mL
COc1ccc(N(C)S(=O)(=O)c2ccc3[nH]c(=O)c(=O)[nH]c3c2)cc1 [Compound 14],Eis inhibition in the HTS (in words),[1],inactive
CC1=C(c2ccc(Cl)cc2)S(=O)(=O)N=C1NCCCN1CCN(C)CC1 [Compound 14c],H37Rv MICKAN,[3]; [9],0.625 µg/mL
Cc1ccc(N(C)S(=O)(=O)c2ccc3[nH]c(=O)c(=O)[nH]c3c2)cc1 [Compound 15],Eis inhibition in the HTS (in words),[1],inactive
CCN1CCN(CCCNC2=NS(=O)(=O)C(c3ccc(C)cc3)=C2C)CC1 [Compound 15e],H37Rv MICKAN,[3]; [9],0.625 to 1.25 µg/mL
CCN1CCN(CCCNC2=NS(=O)(=O)C(c3ccc(C(C)C)cc3)=C2C)CC1 [Compound 15f],H37Rv MICKAN,[3]; [9],0.625 to 1.25 µg/mL
CC1=C(c2ccc(C)c(C)c2)S(=O)(=O)N=C1NCCCN1CCN(C2CCCCC2)CC1 [Compound 17i],H37Rv MICKAN,[3]; [9],0.625 to 1.25 µg/mL
CN(c1ccc(Br)cc1)S(=O)(=O)c1ccc2[nH]c(=O)c(=O)[nH]c2c1 [Compound 29],Eis inhibition in the HTS (in words),[1]; single-point HTS of library compounds,potently inhibited Eis activity
CC1=C(c2ccccc2)S(=O)(=O)N=C1NCCN1CCCCC1 [Compound 33a],H37Rv MICKAN,[3]; [9],0.625 µg/mL
CC1=C(c2ccc(C)cc2)S(=O)(=O)N=C1NCCN1CCOCC1 [Compound 35e],H37Rv MICKAN,[3]; [9],0.625 µg/mL
CC1=C(c2cccc(Cl)c2)S(=O)(=O)N=C1NCCN1CCOCC1 [Compound 35g],H37Rv MICKAN,[3]; [9],0.625 µg/mL
CC1=C(c2cccc(Br)c2)S(=O)(=O)N=C1NCCN1CCOCC1 [Compound 35h],H37Rv MICKAN,[3]; [9],0.625 µg/mL
CC1=C(c2ccc(C)c(C)c2)S(=O)(=O)N=C1NCCN1CCOCC1 [Compound 35i],H37Rv MICKAN,[3]; [9],0.625 µg/mL
COc1ccc(C2=C(C)C(NCCN3CCN(C)CC3)=NS2(=O)=O)cc1 [Compound 36d],H37Rv MICKAN,[3]; [9],0.625 µg/mL
CCN1CCN(CCNC2=NS(=O)(=O)C(c3ccc(F)cc3)=C2C)CC1 [Compound 37b],H37Rv MICKAN,[3]; [9],0.625 µg/mL
CCN1CCN(CCNC2=NS(=O)(=O)C(c3ccc(OC)cc3)=C2C)CC1 [Compound 37d],H37Rv MICKAN,[3]; [9],0.625 to 1.25 µg/mL
COc1cccc(N(C)S(=O)(=O)c2ccc3[nH]c(=O)c(=O)[nH]c3c2)c1 [Compound 39],inhibition of KAN acetylation by AAC(6′)-Ie/APH(2″)-Ia (in words),[4],did not inhibit KAN acetylation
same,inhibition of KAN acetylation by AAC(3)-IV (in words),[5],did not inhibit KAN acetylation
same,inhibition at 200 µM,[6]; read-out: inhibition of the AAC(2′)-Ic activity,15%
CN(c1ccc2ccccc2c1)S(=O)(=O)c1ccc2[nH]c(=O)c(=O)[nH]c2c1 [Compound 46],inhibition of KAN acetylation by AAC(6′)-Ie/APH(2″)-Ia (in words),[4]; [10],did not inhibit KAN acetylation
same,inhibition of KAN acetylation by AAC(3)-IV (in words),[5],did not inhibit KAN acetylation
same,inhibition of KAN acetylation by AAC(2′)-Ic (in words),[6]; [10],did not inhibit KAN acetylation
CC1=C(c2ccc(F)cc2)S(=O)(=O)N=C1N1CCC(N2CCCCC2)CC1 [Compound 46b],% activity,[4]; acetylation activity of AAC(6′)-Ie/APH(2″)-Ia at 200 μM inhibitor relative to that without inhibitor,80%
same,inhibition of KAN acetylation by AAC(6′)-Ie/APH(2″)-Ia (in words),[4]; [10],no inhibition by either compound was observed
same,% activity,[5]; AAC(3)-IV activity at 200 μM inhibitor relative to that without inhibitor,100%
same,inhibition of KAN acetylation by AAC(3)-IV (in words),[5],no inhibition by either compound was observed
same,H37Rv MICKAN,[3]; [9],0.625 to 1.25 µg/mL
same,inhibition of KAN acetylation by AAC(2′)-Ic (in words),[6],no inhibition by either compound was observed
same,% activity,[6]; 200 µM,100%
same,IC50,[2]; read-out: IC50,92 ± 21 nM
COc1cc(N(C)S(=O)(=O)c2ccc3[nH]c(=O)c(=O)[nH]c3c2)cc2ccccc12 [Compound 47],inhibition of purified Eis (in words),[2]; dose-response assay,loss of Eis inhibition
CCCN1CCN(C2=NS(=O)(=O)C(c3ccc(C)c(C)c3)=C2C)CC1 [Compound 62i],H37Rv MICKAN,[3]; [9],0.625 µg/mL
CC1=C(c2ccc(F)cc2)S(=O)(=O)N=C1NCc1ccccc1 [Compound 89b],H37Rv MICKAN,[3]; [9],1.25 µg/mL
CC1=C(c2ccc(F)cc2)S(=O)(=O)N=C1NCc1ccccn1 [Compound 112b],H37Rv MICKAN,[3]; [9],0.625 µg/mL
CC1=C(c2ccc(C)c(C)c2)S(=O)(=O)N=C1NCC(=O)NCc1ccc(C)o1 [Compound 116i],H37Rv MICKAN,[3]; [9],1.25 µg/mL
"NC[C@H]1O[C@H](O[C@H]2[C@H](O)[C@@H](O[C@H]3O[C@H](CO)[C@@H](O)[C@H](N)[C@H]3O)[C@H](N)C[C@@H]2N)[C@H](O)[C@@H](O)[C@@H]1O [KAN, kanamycin A]",effect on cell growth (in words),[7],promotes cell growth
COC(=O)c1cc2occc2n1CC(=O)c1cccc(OC)c1 [if],IC50,[2],> 200000 nM

# Source: patent US10253035B2 (priority 2016, dated 2019)
